Reference: US10294207B2, “Pyrazole derivatives as TNIK, IKKϵ and TBK1 inhibitor and pharmaceutical composition comprising same” (GREEN CROSS CORPORATION, priority 2015, dated 2019)
Each block holds one molecule with its values, some of them ahead of it.

How the values were obtained:
TBK1 = target: T1, TBK1 (Homo sapiens, UniProt Q9UHD2); assay: TBK1 inhibition, ADP-Glo Kinase Assay; assay type: biochemical; conditions: luminometer
T1 construct: purchased Promega V3991
T1 sequence (Q9UHD2 1-729): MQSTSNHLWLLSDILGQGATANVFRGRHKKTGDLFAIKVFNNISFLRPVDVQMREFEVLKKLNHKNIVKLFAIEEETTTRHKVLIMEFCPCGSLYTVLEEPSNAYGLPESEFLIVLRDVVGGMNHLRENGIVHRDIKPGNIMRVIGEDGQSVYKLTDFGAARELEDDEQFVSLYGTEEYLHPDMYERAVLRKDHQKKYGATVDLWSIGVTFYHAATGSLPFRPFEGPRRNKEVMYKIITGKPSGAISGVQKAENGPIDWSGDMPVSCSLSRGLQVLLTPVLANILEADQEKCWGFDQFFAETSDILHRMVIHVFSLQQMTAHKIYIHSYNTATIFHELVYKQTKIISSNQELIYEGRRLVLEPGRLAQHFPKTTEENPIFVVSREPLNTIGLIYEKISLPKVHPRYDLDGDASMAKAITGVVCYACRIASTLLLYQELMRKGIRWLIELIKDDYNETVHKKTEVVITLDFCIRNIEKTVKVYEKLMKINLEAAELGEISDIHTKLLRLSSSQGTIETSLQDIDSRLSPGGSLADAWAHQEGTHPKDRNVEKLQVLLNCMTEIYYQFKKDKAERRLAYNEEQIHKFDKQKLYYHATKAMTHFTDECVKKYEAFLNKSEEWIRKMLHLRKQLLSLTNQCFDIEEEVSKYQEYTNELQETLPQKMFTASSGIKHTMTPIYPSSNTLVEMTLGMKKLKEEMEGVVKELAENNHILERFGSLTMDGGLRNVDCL
How it was run: (§1)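 ADP-Glo luminescence reported ADP produced by each kinase, following the kit protocol. Reactions used commercial kinase enzyme systems in buffer of 40 mM Tris (pH 7.5), 20 mM MgCl2 and 0.1 mg/mL BSA.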

IKKε = target: T2, IKKε (Homo sapiens, UniProt Q14164); assay: IKKε inhibition, ADP-Glo Kinase Assay; assay type: biochemical; conditions: luminometer
T2 construct: purchased Invitrogen PR8031B
T2 sequence (Q14164 1-716): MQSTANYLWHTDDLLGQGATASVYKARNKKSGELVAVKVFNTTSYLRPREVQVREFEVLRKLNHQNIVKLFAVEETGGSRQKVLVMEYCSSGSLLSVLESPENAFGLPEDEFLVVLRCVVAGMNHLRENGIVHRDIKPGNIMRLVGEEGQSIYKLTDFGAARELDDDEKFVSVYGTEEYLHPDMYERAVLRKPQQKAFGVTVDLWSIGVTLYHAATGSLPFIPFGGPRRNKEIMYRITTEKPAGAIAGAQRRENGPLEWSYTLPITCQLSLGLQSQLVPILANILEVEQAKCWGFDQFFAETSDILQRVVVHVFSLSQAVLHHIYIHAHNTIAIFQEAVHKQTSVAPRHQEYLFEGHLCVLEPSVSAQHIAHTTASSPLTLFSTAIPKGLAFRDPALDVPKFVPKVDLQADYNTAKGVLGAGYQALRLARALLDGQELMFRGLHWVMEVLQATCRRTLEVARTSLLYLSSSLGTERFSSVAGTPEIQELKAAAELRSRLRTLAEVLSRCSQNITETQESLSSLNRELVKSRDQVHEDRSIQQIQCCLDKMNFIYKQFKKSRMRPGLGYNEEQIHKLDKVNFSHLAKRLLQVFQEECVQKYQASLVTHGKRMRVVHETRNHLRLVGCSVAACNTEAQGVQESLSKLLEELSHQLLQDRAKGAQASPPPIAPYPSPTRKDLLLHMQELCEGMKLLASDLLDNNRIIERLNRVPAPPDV
How it was run: as §1

Compound: O=C(Nc1n[nH]c2ccc(C(=O)NC(c3cccs3)C3CC3)cc12)c1ccc(N2CCNCC2)cc1 (centres unmarked) [Example 126, N-(Cyclopropyl(thiophen-2-yl)methyl)-3-(4-(piperazin-1-yl)benzamido)-1H-indazole-5-carboxamide]
- IC50 (TBK1): 0.019 µM
- IC50 (IKKε): 0.013 µM

Compound: CC(NC(=O)c1ccc2[nH]nc(NC(=O)c3ccc(N4CCOCC4)cc3)c2c1)c1ccccn1 (centres unmarked) [Example 127, 3-(4-Morpholinobenzamido)-N-(1-(pyridin-2-yl)ethyl)-1H-indazole-5-carboxamide]
- IC50 (TBK1): 0.027 µM
- IC50 (IKKε): 0.14 µM

Compound: CC(NC(=O)c1ccc2[nH]nc(NC(=O)c3ccc(N4CCOCC4)cc3)c2c1)c1ccncc1 (centres unmarked) [Example 132, 3-(4-Morpholinobenzamido)-N-(1-(pyridin-4-yl)ethyl)-1H-indazole-5-carboxamide]
- IC50 (TBK1): 0.023 µM
- IC50 (IKKε): 0.043 µM

Compound: CN1CCN(c2ccc(C(=O)Nc3n[nH]c4ccc(C(=O)NC(c5cccs5)C(F)(F)F)cc34)cc2)CC1 (centres unmarked) [Example 135, 3-(4-(4-Methylpiperazin-1-yl)benzamido)-N-(2,2,2-trifluoro-1-(thiophen-2-yl)ethyl)-1H-indazole-5-carboxamide]
- IC50 (TBK1): 0.0085 µM
- IC50 (IKKε): 0.038 µM

Compound: CN1CCN(c2ccc(C(=O)Nc3n[nH]c4ccc(C(=O)NC(C)(C)c5cccs5)cc34)cc2)CC1 [Example 136, 3-(4-(4-Methylpiperazin-1-yl)benzamido)-N-(2-(thiophen-2-yl)propan-2-yl)-1H-indazole-5-carboxamide]
- IC50 (TBK1): 0.0057 µM
- IC50 (IKKε): 0.024 µM

Compound: O=C(Nc1n[nH]c2ccc(C(=O)NC(c3cccs3)C(F)(F)F)cc12)c1ccc(N2CCOCC2)cc1 (centres unmarked) [Example 138, 3-(4-Morpholinobenzamido)-N-(2,2,2-trifluoro-1-(thiophen-2-yl)ethyl)-1H-indazole-5-carboxamide]
- IC50 (TBK1): 0.039 µM
- IC50 (IKKε): 0.12 µM

Compound: CN1CCN(c2ccc(C(=O)Nc3n[nH]c4ccc(C(=O)NC(c5ccccn5)C5CC5)cc34)cc2)CC1 (centres unmarked) [Example 140, N-(Cyclopropyl(pyridin-2-yl)methyl)-3-(4-(4-methylpiperazin-1-yl)benzamido)-1H-indazole-5-carboxamide]
- IC50 (TBK1): 0.084 µM
- IC50 (IKKε): 0.27 µM

Compound: CN1CCN(c2ccc(C(=O)Nc3n[nH]c4ccc(NC(=O)Cc5cccs5)cc34)cc2)CC1 [Example 141, 4-(4-Methylpiperazin-1-yl)-N-(5-(2-(thiophen-2-yl)acetamido)-1H-indazol-3-yl)benzamide]
- IC50 (TBK1): 0.024 µM
- IC50 (IKKε): 0.38 µM

Compound: CN1CCN(c2ccc(C(=O)Nc3n[nH]c4ccc(C(=O)NC(c5cccnc5)C5CC5)cc34)cc2)CC1 (centres unmarked) [Example 143, N-(Cyclopropyl(pyridin-3-yl)methyl)-3-(4-(4-methylpiperazin-1-yl)benzamido)-1H-indazole-5-carboxamide]
- IC50 (TBK1): 0.071 µM
- IC50 (IKKε): 0.12 µM

Compound: O=C(Cc1cccs1)Nc1ccc2[nH]nc(NC(=O)c3ccc(N4CCOCC4)cc3)c2c1 [Example 144, 4-Morpholino-N-(5-(2-(thiophen-2-yl)acetamido)-1H-indazol-3-yl)benzamide]
- IC50 (TBK1): 0.069 µM
- IC50 (IKKε): 0.25 µM

Compound: CN1CCN(c2ccc(C(=O)Nc3n[nH]c4ccc(C(=O)NC(C)(C)c5ccsc5)cc34)cc2)CC1 [Example 145, 3-(4-(4-methylpiperazin-1-yl)benzamido)-N-(2-(thiophen-3-yl)propan-2-yl)-1H-indazole-5-carboxamide]
- IC50 (TBK1): 0.012 µM
- IC50 (IKKε): 0.033 µM

Compound: CN1CCN(c2ccc(C(=O)Nc3n[nH]c4ccc(C(=O)NC5(c6cccs6)CCCCC5)cc34)cc2)CC1 [Example 147, 3-(4-(4-Methylpiperazin-1-yl)benzamido)-N-(1-(thiophen-2-yl)cyclohexyl)-1H-indazole-5-carboxamide]
- IC50 (TBK1): 0.11 µM
- IC50 (IKKε): 0.34 µM

Continued by falling IC50 (TBK1), values first:

- IC50 (TBK1): 0.11 µM
- IC50 (IKKε): 0.9 µM
Compound: CC(C)CC(NC(=O)c1ccc2[nH]nc(NC(=O)c3ccc(N4CCOCC4)cc3)c2c1)c1cccs1 (centres unmarked) [Example 130, N-(3-Methyl-1-(thiophen-2-yl)butyl)-3-(4-morpholinobenzamido)-1H-indazole-5-carboxamide]

- IC50 (TBK1): 0.1 µM
- IC50 (IKKε): 0.34 µM
Compound: O=C(Nc1n[nH]c2ccc(C(=O)NC(c3ccccn3)C3CC3)cc12)c1ccc(N2CCOCC2)cc1 (centres unmarked) [Example 139, N-(Cyclopropyl(pyridin-2-yl)methyl)-3-(4-morpholinobenzamido)-1H-indazole-5-carboxamide]

- IC50 (TBK1): 0.067 µM
- IC50 (IKKε): 0.096 µM
Compound: O=C(Nc1n[nH]c2ccc(C(=O)NC(c3cccnc3)C3CC3)cc12)c1ccc(N2CCOCC2)cc1 (centres unmarked) [Example 142, N-(Cyclopropyl(pyridin-3-yl)methyl)-3-(4-morpholinobenzamido)-1H-indazole-5-carboxamide]

- IC50 (TBK1): 0.03 µM
- IC50 (IKKε): 0.14 µM
Compound: CCC(C)(NC(=O)c1ccc2[nH]nc(NC(=O)c3ccc(N4CCN(C)CC4)cc3)c2c1)c1cccs1 (centres unmarked) [Example 131, 3-(4-(4-methylpiperazin-1-yl)benzamido)-N-(2-(thiophen-2-yl)butan-2-yl)-1H-indazole-5-carboxamide]

- IC50 (TBK1): 0.028 µM
- IC50 (IKKε): 0.11 µM
Compound: CC(NC(=O)c1ccc2[nH]nc(NC(=O)c3ccc(N4CCN(C)CC4)cc3)c2c1)c1ccccn1 (centres unmarked) [Example 128, 3-(4-(4-Methylpiperazin-1-yl)benzamido)-N-(1-(pyridin-2-yl)ethyl)-1H-indazole-5-carboxamide]

- IC50 (TBK1): 0.028 µM
- IC50 (IKKε): 0.053 µM
Compound: CC(NC(=O)c1ccc2[nH]nc(NC(=O)c3ccc(N4CCN(C)CC4)cc3)c2c1)c1ccncc1 (centres unmarked) [Example 133, 3-(4-(4-Methylpiperazin-1-yl)benzamido)-N-(1-(pyridin-4-yl)ethyl)-1H-indazole-5-carboxamide]

- IC50 (TBK1): 0.022 µM
- IC50 (IKKε): 0.054 µM
Compound: CC(C)CC(NC(=O)c1ccc2[nH]nc(NC(=O)c3ccc(N4CCN(C)CC4)cc3)c2c1)c1cccs1 (centres unmarked) [Example 129, N-(3-Methyl-1-(thiophen-2-yl)butyl)-3-(4-(4-methylpiperazin-1-yl)benzamido)-1H-indazole-5-carboxamide]

- IC50 (TBK1): 0.019 µM
- IC50 (IKKε): 0.065 µM
Compound: CN1CCN(c2ccc(C(=O)Nc3n[nH]c4ccc(C(=O)NCc5ccc(Cl)s5)cc34)cc2)CC1 [Example 146, N-((5-chlorothiophen-2-yl)methyl)-3-(4-(4-methylpiperazin-1-yl)benzamido)-1H-indazole-5-carboxamide]

- IC50 (TBK1): 0.012 µM
- IC50 (IKKε): 0.033 µM
Compound: CC(C)(NC(=O)c1ccc2[nH]nc(NC(=O)c3ccc(N4CCOCC4)cc3)c2c1)c1cccs1 [Example 134, 3-(4-Morpholinobenzamido)-N-(2-(thiophen-2-yl)propan-2-yl)-1H-indazole-5-carboxamide]

- IC50 (TBK1): 0.0075 µM
- IC50 (IKKε): 0.032 µM
Compound: CN1CCN(c2ccc(C(=O)Nc3n[nH]c4ccc(C(=O)NCc5cccs5)cc34)cc2)CC1 [Example 149, 3-(4-(4-methylpiperazin-1-yl)benzamido)-N-(thiophen-2-ylmethyl)-1H-indazole-5-carboxamide]

- IC50 (TBK1): 0.0072 µM
- IC50 (IKKε): 0.049 µM
Compound: COCCNc1ccc(C(=O)Nc2n[nH]c3ccc(C(=O)NCc4cccs4)cc23)cc1 [Example 150, 3-(4-((2-methoxyethyl)amino)benzamido)-N-(thiophen-2-ylmethyl)-1H-indazole-5-carboxamide]

- IC50 (TBK1): 0.0049 µM
- IC50 (IKKε): 0.032 µM
Compound: C[C@H]1CN(c2ccc(C(=O)Nc3n[nH]c4ccc(C(=O)NC(C)(C)c5cccs5)cc34)cc2)CCN1 [Example 137, (S)-3-(4-(3-Methylpiperazin-1-yl)benzamido)-N-(2-(thiophen-2-yl)propan-2-yl)-1H-indazole-5-carboxamide]

- IC50 (TBK1): 0.004 µM
- IC50 (IKKε): 0.031 µM
Compound: O=C(NCc1cccs1)c1ccc2[nH]nc(NC(=O)c3ccc(N4CCOCC4)cc3)c2c1 [Example 148, 3-(4-Morpholinobenzamido)-N-(thiophen-2-ylmethyl)-1H-indazole-5-carboxamide]
